≈ marks a conversion by molar mass, not a printed value.
Assay: Solubility in water
Format: physicochemical
Settings: pH 5.8, water, at 25° C. and pH of 5.8 to 6.0
Procedure: A wide range of container sizes may be employed. Container size may be conveniently categorised as Low-Volume, e.g., 100 ml or less and High-Volume, e.g., above 100 ml and typically 250 ml.

Structure (SMILES): NC(=O)N1c2ccccc2CC(=O)c2ccccc21 [oxcarbazepine, 10,11-Dihydro-10-oxo-5H-di-benz[b,f]azepine-5-carboxamide]
- solubility: 3200 to 4200 µg/mL (≈ 12.7 to 16.6 mM)

— US8119148B2, “Suspension comprising oxcarbazepine” (Novartis Pharmaceuticals Corporation, priority 1999, dated 2012)
